{
  "source": "patent US20230043672A1",
  "about": "“AROMATIC AMIDO DERIVATIVES AS LPA RECEPTOR 2 INHIBITORS” (CHIESI FARMACEUTICI S.P.A., priority 2019, published 2023)",
  "data": [
    {"biological_target": "T1, human recombinant LPA2 expressed in CHO cells (Homo sapiens, UniProt Q9HBW0)", "T1 construct": "expressed in transfected cells; host or cells: CHO cells (CHO-hLPA2 cell line)", "T1 sequence (Q9HBW0 whole entry)": "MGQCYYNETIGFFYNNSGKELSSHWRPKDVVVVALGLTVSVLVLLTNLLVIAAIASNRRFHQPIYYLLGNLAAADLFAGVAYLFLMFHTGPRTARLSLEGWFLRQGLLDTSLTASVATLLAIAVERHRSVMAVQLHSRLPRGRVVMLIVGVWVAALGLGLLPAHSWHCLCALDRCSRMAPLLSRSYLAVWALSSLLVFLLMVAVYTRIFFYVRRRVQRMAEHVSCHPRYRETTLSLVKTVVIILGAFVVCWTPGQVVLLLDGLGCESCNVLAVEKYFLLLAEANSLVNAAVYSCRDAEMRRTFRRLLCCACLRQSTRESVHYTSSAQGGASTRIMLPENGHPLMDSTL", "assay": "FLIPR calcium mobilization assay, LPA2 antagonism in CHO-hLPA2 cells", "type": "cell-based", "details": "LPA EC80 stimulation, potency class, read-out: LPA2 IC50", "procedure": "(§1) The effectiveness of compounds of the present invention as LPA2 antagonist can be determined at the human recombinant LPA2 expressed in CHO cells, using a FLIPR assay in 384 well format.\n(§2) CHO-hLPA2 cell lines are cultured in a humidified incubator at 5% CO2 in DMEM/F-12 (1:1) MIXTURE with 2 mM Glutamax, supplemented with 10% of Foetal Bovine Serum, 1 mM Sodium Pyruvate, 11 mM Hepes and 1× Penicillin/Streptomycin. CHO hLPA2 cells are seeded into black walled clear-bottom 384-well plates (#781091, Greiner Bio-One GmbH) at a density of 7,500 cells per well in 50 μl culture media and grown overnight in a 37° C. humidified CO2-incubator. Serial dilutions (1:3 or 1:4, 11 points CRC) of compounds are performed in 100% DMSO at 200× the final concentration. The compounds are diluted 1:50 prior to the experiment with Assay Buffer (20 mM HEPES, 145 mM NaCl, 5 mM KCl, 5.5 mM glucose, 1 mM MgCl2 and 2 mM CaCl2), pH 7.4 containing 0.01% Pluronic F-127) to obtain a solution corresponding to […] the final concentration in the assay (4×, 2% DMSO). The final concentration of DMSO in the assay will be 0.5% in each well. Medium is removed by aspiration and cells are then incubated with 30 μl of a loading solution containing 5 μM of the cytoplasmic Ca2+ indicator Cal-520 AM in Assay Buffer containing 2.5 mM probenecid for 30 min at 37° C. incubator (cell loading). The loaded cell plates are transferred into the FLIPR instrument and calcium responses are monitored during the on-line addition protocols. For testing of compounds, after the cell loading, 10 μl/well of 4× antagonists' solution was added onto the cells. After 30 min pre-incubation (at 37° C.), 10 μl/well of 5× concentrated LPA EC80 was added and Ca2+ mobilization responses was followed during the on-line addition protocol. Intracellular peak fluorescence values subtracted by baseline fluorescence are exported and analysed to determine IC50 values, respectively. The calcium response is expressed as percentage of the maximal inhibition of the EC80 agonist response.\n(§3) The raw data obtained in unstimulated controls (DMSO, no LPA) are set as “100% inhibition”, while the raw data obtained in negative controls, i.e. in the absence of compounds and stimulating with LPA EC80, are set as “0% inhibition”.\n(§4) The raw data (peak height expressed as relative fluorescence units) are normalized and transformed into “percent of inhibition”. Curve fitting and pIC50 (−Log IC50) estimations are carried out using a four-parameter logistic model using XLfit Software.", "units": {"IC50": "nM"}, "values": [
      {"smiles": "Cc1cc(-c2ccc(S(=O)(=O)N3CCN(C[C@H](C)NC(=O)c4cc(-c5sc(C)nc5C)ccn4)CC3)s2)on1", "note": "[Example 3, 4-(2,4-dimethyl-1,3-thiazol-5-yl)-N-[(2S)-1-(4-{[5-(3-methyl-1,2-oxazol-5-yl)thiophen-2-yl]sulfonyl}piperazin-1-yl)propan-2-yl]pyridine-2-carboxamide]", "IC50": "10 to 100"},
      {"smiles": "COC(=O)Nc1nc(C)c(S(=O)(=O)N2CCN(C[C@H](C)NC(=O)c3cc(-c4sc(C)nc4C)ccc3F)CC2)s1", "note": "[Example 5, methyl N-[5-({4-[(2S)-2-{[5-(2,4-dimethyl-1,3-thiazol-5-yl)-2-fluorophenyl]formamido}propyl]piperazin-1-yl}sulfonyl)-4-methyl-1,3-thiazol-2-yl]carbamate]", "IC50": "10 to 100"},
      {"smiles": "COC(=O)Nc1nc(C)c(S(=O)(=O)N2CCN(C[C@H](C)NC(=O)c3cccc(-c4sc(C)nc4C)c3)CC2)s1", "note": "[Example 1, methyl N-[5-({4-[(2S)-2-{[3-(2,4-dimethyl-1,3-thiazol-5-yl)phenyl]formamido}propyl]piperazin-1-yl}sulfonyl)-4-methyl-1,3-thiazol-2-yl]carbamate]", "IC50": "< 10"},
      {"smiles": "COC(=O)Nc1nc(C)c(S(=O)(=O)N2CCN(C[C@H](C)NC(=O)c3cccc(-c4cccc(CN(C)C)c4)c3)CC2)s1", "note": "[Example 7, methyl N-[5-({4-[(2S)-2-({3′-[(dimethylamino)methyl]-[1,1′-biphenyl]-3-yl}formamido)propyl]piperazin-1-yl}sulfonyl)-4-methyl-1,3-thiazol-2-yl]carbamate]", "IC50": "10 to 100"},
      {"smiles": "Cc1nc(C)c(-c2cccc(C(=O)N[C@@H](C)CN3CCN(S(=O)(=O)c4ccc5[nH]c(=O)sc5c4)CC3)c2)s1", "note": "[Example 11, 3-(2,4-dimethyl-1,3-thiazol-5-yl)-N-[(2S)-1-{4-[(2-oxo-2,3-dihydro-1,3-benzothiazol 6-yl)sulfonyl]piperazin-1-yl}propan-2-yl]benzamide]", "IC50": "< 1000"},
      {"smiles": "Cc1cc(-c2ccc(S(=O)(=O)N3CCN(C[C@H](C)NC(=O)c4cc(-c5sc(C)nc5C)ccc4F)CC3)s2)on1", "note": "[Example 2, 5-(2,4-dimethyl-1,3-thiazol-5-yl)-2-fluoro-N-[(2 S)-1-(4-{[5-(3-methyl-1,2-oxazol-5-yl)thiophen-2-yl]sulfonyl}piperazin-1-yl)propan-2-yl]benzamide]", "IC50": "10 to 100"},
      {"smiles": "COC(=O)Nc1nc(C)c(S(=O)(=O)N2CCN(C[C@H](C)NC(=O)c3cccc(-c4cn(C)nc4C(F)(F)F)c3)CC2)s1", "note": "[Example 9, methyl N-[4-methyl-5-({4-[(2S)-2-({3-[1-methyl-3-(trifluoromethyl)-1H-pyrazol-4-yl]phenyl}formamido)propyl]piperazin-1-yl}sulfonyl)-1,3-thiazol-2-yl]carbamate]", "IC50": "< 1000"},
      {"smiles": "COC(=O)Nc1nc(C)c(S(=O)(=O)N2CCN(C[C@H](C)NC(=O)c3cccc(-c4sc(C)nc4C)n3)CC2)s1", "note": "[Example 6, methyl N-[5-({4-[(2S)-2-{[6-(2,4-dimethyl-1,3-thiazol-5-yl)pyridin-2-yl]formamido}propyl]piperazin-1-yl}sulfonyl)-4-methyl-1,3-thiazol-2-yl]carbamate]", "IC50": "< 1000"},
      {"smiles": "COC(=O)Nc1nc(C)c(S(=O)(=O)N2CCN(C[C@H](C)NC(=O)c3cccc(-c4ccc(C)nc4)c3)CC2)s1", "note": "[Example 8, methyl N-[4-methyl-5-({4-[(2S)-2-{[3-(6-methylpyridin-3-yl)phenyl] formamido}propyl]piperazin-1-yl}sulfonyl)-1,3-thiazol-2-yl]carbamate]", "IC50": "10 to 100"},
      {"smiles": "COC(=O)Nc1nc(C)c(S(=O)(=O)N2CCN(C[C@H](C)NC(=O)c3cc(-c4sc(C)nc4C)ccn3)CC2)s1", "note": "[Example 4, methyl N-[5-({4-[(2S)-2-{[4-(2,4-dimethyl-1,3-thiazol-5-yl)pyridin-2-yl]formamido}propyl]piperazin-1-yl}sulfonyl)-4-methyl-1,3-thiazol-2-yl]carbamate]", "IC50": "< 1000"},
      {"smiles": "COC(=O)Nc1nc(C)c(S(=O)(=O)N2CCN(C[C@H](C)NC(=O)c3cc(-c4cccc(CN(C)C)c4)cs3)CC2)s1", "note": "[Example 10, methyl N-[5-({4-[(2S)-2-[(4-{3-[(dimethylamino)methyl]phenyl}thiophen-2-yl)formamido]propyl]piperazin-1-yl}sulfonyl)-4-methyl-1,3-thiazol-2-yl]carbamate]", "IC50": "< 1000"}
    ]},
    {"biological_target": "T1, human recombinant LPA2 expressed in CHO cells", "assay": "FLIPR calcium mobilization assay, LPA2 antagonism in CHO-hLPA2 cells", "type": "cell-based", "details": "compound called inactive on receptor LPA2, read-out: IC50 on LPA2 receptor", "procedure": "as §1, §2, §3, §4", "units": {"IC50": "nM"}, "values": [
      {"smiles": "COC(=O)Nc1nc(C)c(S(=O)(=O)N2CCN(C[C@H](C)Nc3ncnc4ncccc34)CC2)s1", "note": "[Comparative Example A, Methyl (S)-(4-methyl-5-((4-(2-(pyrido[2,3-d]pyrimidin-4 ylamino)propyl)piperazin-1-yl)sulfonyl)thiazol-2-yl)carbamate, reference compound]", "IC50": "> 3000"}
    ]}
  ]
}
